# Assays:
# [1] = tested on: C57BL/6 mice with MI induced by permanent coronary artery ligation; test: MI by permanent coronary artery ligation, short-term (3 days) treatment: echocardiography, MRI, scar, infarct size, TUNEL; type: in vivo, mouse; conditions: for Size of the infarction, percentage of the AAR volume, vs PBS: TTC
# From the text: All mouse studies were approved by the Animal Research Ethics Committee of Lund University. C57BL/6NRJ mice were purchased from Janvier Labs, C57BL/6-Tg(Nr4a1-EGFP/cre)820Khog/J (Nur77-EGFP) and B6;D2-Tg(Myh6*-mCherry)2Mik/J (α-MHC-mCherry) were purchased from the Jackson Laboratory. Nur77-EGFP mice express the fluorescent EGFP protein under the Nur77 promoter. α-MHC-mCherry mice express the red fluorescent Cherry protein under the mouse alpha myosin heavy-chain promoter in cardiomyocytes. We used 8-12 weeks old female mice in all experiments. MI was induced by left coronary artery ligation using a minimal thoracotomy model. Mice were initially anesthetized with 4% isoflurane and the surgical procedure was performed under 1.7% isoflurane. Following heart exposure outside of the thorax through a small thoracic incision, the left coronary artery was permanently ligated using silk 6.0 suture, the heart repositioned, and the thorax was closed with 6.0 prolene monofilament suture.
# For short-term experiments, a daily dose of 30 mg/Kg ABR-238901 was diluted in PBS and administered by daily i.p. injections for the first 3 days post-MI, starting immediately after ischemia induction (days 0, 1 and 2) (FIG. 1A).
# Ultrasound measurements were performed at day −1 (baseline), 7, and 21 to assess cardiac function using a Vevo 770 echocardiographic imaging system with a 707B probe (VisualSonics, Toronto, Canada). In selected experiments, additional assessment was performed on days 3 and 14. The mice were anesthetized using 1-3% isoflurane and hair was carefully removed using depilatory cream. To maintain body temperature, the mice were placed in supine position on a heated surface (37° C.). Two-dimensional M-mode images were recorded in the parasternal short-axis view at the mid-papillary level. Five complete cardiac cycles were traced to calculate fractional shortening, ejection fraction, left ventricular systolic volume, and left ventricular diastolic volume by using the VisualSonics software.
# At 21 days after MI, the hearts were perfused with ice cold PBS and excised under ketamine/xylazine anesthesia. Subsequently the hearts were fixed in 4% (w/v) paraformaldehyde and embedded in paraffin. The hearts were sectioned transversely from the apex to the level of the suture, and 6 μm thick sections were collected at 390 μm intervals. The sections were mounted on glass slides and stained with Van Gieson or Masson trichrome stain for quantitative analysis of scar size. Alarmin S100A8/A9 was detected using mouse anti-S100A8/A9 IgG1 antibody (Abcam, ab 130234, 1:100 dilution, O/N 4° C.). Goat anti-mouse IgG1 HRP-conjugated secondary antibody (Abcam, ab 97240, 1 h RT) was used and the staining was developed with ImmPACT™ DAB (Vector, SK-4105) chromogen as substrate. The slides were subsequently scanned using an Aperio digital pathology slide scanner (Leica Biosystems), and images were captured with the ImageScope software (Leica Biosystems). Left ventricle area and the infarcted area were measured on each section by using the BioPix iQ 2.5.0 software (Biopix AB). The size of the post-MI myocardial scar was expressed as percentage of the left ventricle volume below the coronary ligature.
# Magnetic resonance measurements were performed on a 9.4 T horizontal magnet (Agilent, Santa Clara, USA) equipped with Bruker BioSpec AVIII electronics operating with ParaVision 6.0.1 (Bruker, Ettlingen, Germany). The experiments were conducted under general anaesthesia using a mixture of isoflurane (2%) and 98% O2 via a nose cone. Rectal temperature, ECG signal, and breathing rate were monitored throughout the measurements (SA instruments, Stony Brook, USA). During the experiment, the mouse was positioned prone in an animal holder and kept warm to maintain constant body temperature at 36-37° C. ECG and respiration triggered FLASH sequence was used to acquire cinematographic MR image series of the beating heart. […]
# [2] = tested on: C57BL/6 mice with MI induced by permanent coronary artery ligation; test: Quantitative PCR of whole heart tissue 3 days post-MI; type: in vivo, mouse
# Protocol: Total RNA was isolated from whole heart tissue using the TRI Reagent™ Solution (Invitrogen) according to the manufacturer's instructions. cDNA was generated from 2 μg of total RNA per sample using the High Capacity RNA to cDNA™ Kit (Applied Biosystems™). Quantitative real-time TaqMan PCR was performed using the following TaqMan primers (Applied Biosystems): Il-1b (Mm00434228_m1), Arg-1 (Mm00475988_m1), Ym-1 (Mm00657889_mH), Cc/5 (Mm01302427_m1), Tnf-α (Mm00443258_m1), Il-12 (Mm01288989_m1), IFN-γ (Mm01168134_m1), Il-10 (Mm00439614_m1), TGF-β (Mm01178820_m1), Il-4 (Mm00445259_m1) and housekeeping gene Hypoxantine-guanine phosphoribosyltransferase (HPRT) (Mm01324427_m1). Quantitative PCR was run on a ViiA7 Real-Time PCR System (Applied Biosystems) and data were quantified with the 2^−ΔCt method.
# In order to assess the effects of the treatment on the post-MI cardiac environment, we performed qPCR analysis of mRNA encoding for proteins involved in myocardial inflammation and repair. The analysis was done in whole heart tissue collected at 3 days post-MI from mice receiving ABR-238901 or PBS (n=5 mice per group). […] The expression of IL-1β, TNFα, IL-10 and TGFβ was not affected at this stage (FIG. 3C, D, H). […] As neutrophils are the main producers of S100A8/A9, this effect is in line with the blunted local and systemic neutrophil response to MI observed in ABR-238901-treated mice (FIG. 2A, H).
# [3] = 3 days treatment, MR, not statistically significant
smiles,measurement,setting,value
"COc1ncc(S(=O)(=O)Nc2cncc(Cl)c2O)cc1Br [ABR-238901, 5-bromo-N-(5-chloro-4-hydroxypyridin-3-yl)-6-methoxypyridine-3-sulfonamide]","Left ventricular EF, average","[1]; 30 mg/Kg i.p. at 0, 24, 48 h, echocardiography, day 21",36%
same,Left ventricular EF vs PBS-treated controls,"[1]; 30 mg/Kg i.p. at 0, 24, 48 h, echocardiography, days 3, 7, 21",higher throughout the follow-up period
same,Increase in cardiac output from day 3 to day 21,"[1]; 3 days treatment, MR",approximately 30%
same,Cardiac output (CO),"[1]; 3 days treatment, MR, day 3",8.1 mL/min
same,Left ventricular EF,"[1]; 3 days treatment, MR, day 3",29%
same,Left ventricular EF,"[1]; 3 days treatment, MR, day 7",25%
same,Cardiac output (CO),"[1]; 3 days treatment, MR, day 21",10.4 mL/min
same,Left ventricular EF,"[1]; 3 days treatment, MR, day 21",26%
same,EDV vs PBS-treated MI group,[1]; [3],tendency towards lower
same,ESV vs PBS-treated MI group,[1]; [3],tendency towards lower
same,"Size of the infarction, percentage of the AAR volume, vs PBS","[1]; 3 days treatment, day 3 post-MI",smaller
same,"Size of the infarction, percentage of the AAR volume, vs PBS","[1]; 3 days treatment, day 7 post-MI",smaller
same,Average myocardial scar size vs controls,"[1]; 3 days treatment, day 21, Van Gieson staining",tendency towards smaller
same,Percentage of apoptotic cells in the myocardium (TUNEL),[1]; day 3 post-MI,significantly reduced
same,Gene expression of the chemokine CCL5/RANTES in heart,[2],inhibited
same,IL-1β expression in heart,[2],not affected
same,IL-10 expression in heart,[2],not affected
same,TGFβ expression in heart,[2],not affected
same,TNFα expression in heart,[2],not affected
same,Arg-1 mRNA expression in heart,[2]; vs MI controls,enhanced
same,IFN-γ mRNA expression in heart,[2]; vs MI controls,inhibited
same,IL-4 mRNA expression in heart,[2]; vs MI controls,enhanced
same,IL-12 mRNA expression in heart,[2]; vs MI controls,inhibited
same,Ym-1 mRNA expression in heart,[2]; vs MI controls,enhanced

# From patent US20220378763A1, “COMPOUND FOR TREATMENT OF ACUTE INFLAMMATION IN THE MYOCARDIUM” (CALPROTECT AB, priority 2019, published 2022)
